Measured values published in US11072588B2, “Barbituric acid derivatives comprising cationic and lipophilic groups” (UNIVERSITETET I TROMSØ—NORGES ARKTISKE UNIVERSITET, priority 2017, dated 2021).
Values after ≈ are worked out from the molar mass of the structure shown. Like-named read-outs stand apart in the source and are kept apart here.

Legend:
E. faecium 50758899 = assay: MIC, multi-resistant clinical isolate; type: cell-based, Enterococcus faecium; details: for MIC: Enterococcus faecium, read-out: Antimicrobial activity (MIC); for selectivity index (EC50/MIC): RBC EC50 / MIC
Experimental: (§1) Working solutions of the test derivatives were prepared with up to 100% DMSO and stored at −20° C. If necessary, the solutions were heated to 40-80° C. before testing to facilitate complete dissolution. Double-distilled water was used in all dilutions prepared. […] A microdilution susceptibility test was used for MIC determination according to Clinical and Laboratory Standards Institute, “Methods for Dilution Antimicrobial Sisceptibility Tests for Bacteria That Graw Aerobically”, Approved Standard M07-A9, edition 2012, with modifications as described by Igumnova et al (Bioorg Med Chem, 2016, 24 (22), 5884-5894).
(§2) Briefly, the bacterial inoculum was adjusted to approximately 2.5-3×10^4 cells/mL in Mueller-Hinton broth (MHB, Difco Laboratories, USA), and incubated in a ratio of 1:1 with test derivatives in polystyrene 96-well flat-bottom microplates (NUNC, Roskilde, Denmark). Positive growth control (without test derivatives) and negative control (without bacteria) were included. The reference antibiotic was oxytetracycline hydrochloride (Sigma Aldrich, Saint Louis, Mo., USA). The microplates were incubated in an EnVision microplate reader (Perkin-Elmer, Turku, Finland) placed in an incubator set to 35° C. for 48 h. The MIC value was defined as the lowest concentration of derivative resulting in no bacterial growth as determined by OD600 measurement. All derivatives were tested in three parallels.
(§3) The MIC was determined as explained above with some exceptions; working solutions of test derivatives were prepared from concentrated DMSO stocks stored at room temperature, the density of the bacterial inoculum was increased 40× to 1-1.2×10^6 cells/mL, enterococci were incubated in Brain Heart Infusion broth (BHIB, Difco Laboratories, USA), the microplates were incubated for 24 h, and the derivatives were tested in four parallels.

E. faecium 50673722 = assay: MIC, multi-resistant clinical isolate; type: cell-based, Enterococcus faecium; details: for MIC: Enterococcus faecium, read-out: Antimicrobial activity (MIC); for selectivity index (EC50/MIC): RBC EC50 / MIC
Experimental: as §1, §2, §3

E. faecium K36-18 = assay: MIC, multi-resistant clinical isolate; type: cell-based, Enterococcus faecium; details: for MIC: Enterococcus faecium, K3618, read-out: Antimicrobial activity (MIC); for selectivity index (EC50/MIC): RBC EC50 / MIC, E. faecium K36-18
Experimental: as §1, §2, §3

E. faecium 50901530 = assay: MIC, multi-resistant clinical isolate; type: cell-based, Enterococcus faecium; details: for MIC: Enterococcus faecium, read-out: Antimicrobial activity (MIC); for selectivity index (EC50/MIC): RBC EC50 / MIC
Experimental: as §1, §2, §3

E. faecium TUH50-22 = assay: MIC, multi-resistant clinical isolate; type: cell-based, Enterococcus faecium; details: for MIC: Enterococcus faecium, TUH5022, read-out: Antimicrobial activity (MIC); for selectivity index (EC50/MIC): RBC EC50 / MIC
Experimental: as §1, §2, §3

[1] = Determination of haemolytic activity; type: cell-based; details: human red blood cells (washed, from heparinized fresh blood); human RBCs, 1 h, 37° C.; read-out: RBC: haemolytic activity against human RBCs (EC50)
Experimental: Hemolysis was determined using a heparinized fraction (1000 IU/mL) of freshly drawn blood. Blood collected in EDTA containing test tubes (Vacutest®, KIMA, Arzergrande, Italy) was used for determination of the hematocrit (hct). The heparinized blood was washed 3× with pre-warmed PBS and adjusted to a final hct of 4%. Derivatives in DMSO (50 mM) were added to a 96-well polypropylene V-bottom plate (NUNC, Fisher Scientific, Oslo, Norway) and serially diluted. The test concentration range was 500-4 μM with DMSO contents ≤1%. A solution of 1% triton X-100 was used as positive control for 100% hemolysis. As negative control a solution of 1% DMSO in PBS buffer was included. No signs of DMSO toxicity were detected. RBCs (1% v/v final concentration) were added to the well plate and incubated at 37° C. and 800 rpm for 1 h. After centrifugation (5 min, 3000 g), 100 μL of each well were transferred to a 96-well flat bottom plate and absorbance was measured at 545 nm with a microplate reader (VersaMax™, Molecular Devices, Sunnyvale, Calif., USA). The percentage of hemolysis was calculated as the ratio of the absorbance in the derivative-treated and surfactant treated samples, corrected for the PBS background. Three independent experiments were performed and EC50 values are presented as averages.

[2] = tested on: panel of 30 multi-resistant clinical isolates of Gram-positive and Gram-negative bacteria; assay: MIC screening, ranges over the panel of clinical isolates; type: cell-based
Experimental: as §1, §2, §3

[3] = tested on: human metastatic melanoma (A2058, ATCC CRL-11147) cells; assay: Anti-cancer activity against A2058 cells; type: cell-based; details: A2058, read-out: Anti-cancer IC50
Experimental: Cytotoxicity of the test compounds was evaluated after 72 hour exposure to human metastatic melanoma (A2058, ATCC CRL-11147) cells.
A2058 cells were grown overnight (2,000 cells/well), and then incubated with the test compounds (range of concentrations) diluted in MEM Earle's supplemented with gentamycin (10 μg/mL), non-essential amino acids (1%), sodium pyruvate (1 mM), L-alanyl-Lglutamine (2 mM), but without FBS (total volume was 100 μl) for […]. Ten μL of CellTiter 96® AQueous One Solution Reagent (Promega, Madison, Wis., USA) was added, and the plates were then further incubated for 1 hour.
Absorbance was measured at 485 nm in a DTX 880 Multimode Detector. Results were calculated as % survival compared to negative (assay media) and positive (Triton X-100; Sigma-Aldrich) controls.

K. pneumoniae K47-25 = assay: MIC, multi-resistant clinical isolate; type: cell-based, Klebsiella pneumoniae; details: for MIC: Klebsiella pneumoniae, K4725, 24 h, read-out: Antimicrobial activity (MIC)
A. baumanii K63-58 = assay: MIC, multi-resistant clinical isolate; type: cell-based, Acinetobacter baumannii; details: A. baumanii K63-58, resistant to colistin; for MIC: Acinetobacter baumannii, K6358, 24 h, read-out: Antimicrobial activity (MIC); for selectivity index (EC50/MIC): RBC EC50 / MIC
Experimental: as §1, §2, §3

A. baumanii K55-13 = assay: MIC, multi-resistant clinical isolate; type: cell-based, Acinetobacter baumannii; details: for MIC: Acinetobacter baumannii, K5513, read-out: Antimicrobial activity (MIC); for selectivity index (EC50/MIC): RBC EC50 / MIC
Experimental: as §1, §2, §3

A. baumanii K44-35 = assay: MIC, multi-resistant clinical isolate; type: cell-based, Acinetobacter baumannii; details: for MIC: Acinetobacter baumannii, K4435, read-out: Antimicrobial activity (MIC); for selectivity index (EC50/MIC): RBC EC50 / MIC
Experimental: as §1, §2, §3

A. baumanii K12-21 = assay: MIC, multi-resistant clinical isolate; type: cell-based, Acinetobacter baumannii; details: for MIC: Acinetobacter baumannii, K1221, read-out: Antimicrobial activity (MIC); for selectivity index (EC50/MIC): RBC EC50 / MIC
Experimental: as §1, §2, §3

A. baumanii K47-42 = assay: MIC, multi-resistant clinical isolate; type: cell-based, Acinetobacter baumannii; details: for MIC: Acinetobacter baumannii, K4742, read-out: Antimicrobial activity (MIC); for selectivity index (EC50/MIC): RBC EC50 / MIC
Experimental: as §1, §2, §3

Compound | MIC (E. faecium 50758899) [µg/mL] | selectivity index (EC50/MIC) (E. faecium 50758899) | MIC (E. faecium 50673722) [µg/mL] | selectivity index (EC50/MIC) (E. faecium 50673722) | MIC (E. faecium K36-18) [µg/mL] | selectivity index (EC50/MIC) (E. faecium K36-18) | MIC (E. faecium 50901530) [µg/mL] | selectivity index (EC50/MIC) (E. faecium 50901530) | MIC (E. faecium TUH50-22) [µg/mL] | selectivity index (EC50/MIC) (E. faecium TUH50-22) | EC50 at 1 h [1] [µg/mL] | IC50 [3] [µg/mL] | MIC (K. pneumoniae K47-25) [µg/mL] | MIC (A. baumanii K63-58) [µg/mL] | selectivity index (EC50/MIC) (A. baumanii K63-58) | MIC (A. baumanii K55-13) [µg/mL] | selectivity index (EC50/MIC) (A. baumanii K55-13) | MIC (A. baumanii K44-35) [µg/mL] | selectivity index (EC50/MIC) (A. baumanii K44-35) | MIC (A. baumanii K12-21) [µg/mL] | also measured
CC(C)(C)c1cc(CC2(Cc3cc(C(C)(C)C)cc(C(C)(C)C)c3)C(=O)N(CCCCN)C(=O)N(CCCCN)C2=O)cc(C(C)(C)C)c1 [7(iii), 1,3-bis(4-aminobutyl)-5,5-bis(3,5-di-tert-butylbenzyl)-pyrimidin-2,4,6(1H,3H,5H)-trione] | 2 (≈ 2.96 µM) | (<2) | 2 (≈ 2.96 µM) | (<2) | 2 (≈ 2.96 µM) | (<2) | 2 (≈ 2.96 µM) | (<2) | 2 (≈ 2.96 µM) | (<2) | < 4 | 1 (≈ 1.48 µM) | 16 (≈ 23.7 µM) | 4 (≈ 5.93 µM) | (<1) | 4 (≈ 5.93 µM) | (<1) | 4 (≈ 5.93 µM) | (<1) | 4 (≈ 5.93 µM) | MIC ([2]; read-out: MIC values against all the 30 multi-resistant clinical isolates): 2 to 16 µg/mL (≈ 2.96 to 23.7 µM); selectivity index (EC50/MIC) (K. pneumoniae K47-25; RBC EC50 / MIC, K. pneumoniae K47-25, resistant to colistin): (<2.5); selectivity index (EC50/MIC) (A. baumanii K12-21): (<1); MIC (A. baumanii K47-42): 4 µg/mL (≈ 5.93 µM); selectivity index (EC50/MIC) (A. baumanii K47-42): (<1)
NCCCCN1C(=O)N(CCCCN)C(=O)C(Cc2ccc3ccccc3c2)(Cc2ccc3ccccc3c2)C1=O [7(iv), 1,3-bis(4-aminobutyl)-5,5-bis(naphtalen-2-yl-methyl)-pyrimidin-2,4,6(1H,3H,5H)-trione] | 16 (≈ 29.1 µM) | (15) | 16 (≈ 29.1 µM) | (15) | 16 (≈ 29.1 µM) | (15) | 8 (≈ 14.5 µM) | (30) | 8 (≈ 14.5 µM) | (30) | 243 (≈ 441 µM) | 1 (≈ 1.82 µM) | > 32 | 16 (≈ 29.1 µM) | (15) | 32 (≈ 58.1 µM) | (8) | 32 (≈ 58.1 µM) | (8) | 32 (≈ 58.1 µM) | MIC ([2]; Enterococcus faecium, read-out: MIC values against the Gram-positive isolates of S. aurues and E. faecium): 4 to 16 µg/mL (≈ 7.26 to 29.1 µM); selectivity index (EC50/MIC) (A. baumanii K12-21): (8); MIC (A. baumanii K47-42): 32 µg/mL (≈ 58.1 µM); selectivity index (EC50/MIC) (A. baumanii K47-42): (8)
